According to patent US5753631A, “Intercellular adhesion mediators” (Cytel Corporation, priority 1995, dated 1998):
Where two headings read alike, the source gives them in different places.

Tests used:
P-Selectin = molecular target: T1, P-Selectin (Homo sapiens, UniProt P16109); assay: Oligosaccharide/polysaccharide inhibition of neutrophil adhesion to thrombin activated platelets; format: cell-based; conditions: for IC50: read-out: AMOUNT REQUIRED FOR 50% INHIBITION (converted)
T1 construct: endogenous in cells
T1 sequence (P16109 42-830): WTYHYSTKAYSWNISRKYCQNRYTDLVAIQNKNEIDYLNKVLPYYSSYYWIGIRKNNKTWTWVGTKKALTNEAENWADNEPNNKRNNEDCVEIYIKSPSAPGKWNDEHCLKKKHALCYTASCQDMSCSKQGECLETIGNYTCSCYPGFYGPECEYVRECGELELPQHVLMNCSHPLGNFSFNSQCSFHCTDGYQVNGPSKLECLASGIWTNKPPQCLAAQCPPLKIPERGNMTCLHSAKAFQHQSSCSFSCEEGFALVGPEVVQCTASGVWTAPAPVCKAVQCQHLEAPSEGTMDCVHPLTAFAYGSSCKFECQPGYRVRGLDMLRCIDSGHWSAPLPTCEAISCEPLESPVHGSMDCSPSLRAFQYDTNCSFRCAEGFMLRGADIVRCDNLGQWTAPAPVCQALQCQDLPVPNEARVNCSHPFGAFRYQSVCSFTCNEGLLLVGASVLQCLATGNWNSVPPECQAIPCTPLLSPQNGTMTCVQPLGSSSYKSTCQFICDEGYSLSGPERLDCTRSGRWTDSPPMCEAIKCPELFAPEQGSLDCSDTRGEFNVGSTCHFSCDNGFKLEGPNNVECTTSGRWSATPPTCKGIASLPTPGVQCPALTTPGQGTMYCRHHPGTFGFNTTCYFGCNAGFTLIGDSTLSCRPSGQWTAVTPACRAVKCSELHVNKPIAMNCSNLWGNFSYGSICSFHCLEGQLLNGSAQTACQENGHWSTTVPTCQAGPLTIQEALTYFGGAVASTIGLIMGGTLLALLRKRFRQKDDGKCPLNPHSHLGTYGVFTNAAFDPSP
Protocol: (§1) Briefly, platelets and neutrophils were isolated by the methods described above. Platelets were activated with thrombin and then incubated with dilutions of various oligosaccharides. Neutrophils were added, and the effect of the saccharides on the adhesion of neutrophils to activated platelets was determined.
1. Platelets were isolated as described above and were activated (2×10^8 /ml) by incubation for 20 min at room temperature with thrombin at a final concentration of 0.25 U/ml.
2. Neutrophils were isolated by layering heparinized blood over Mono-Poly Resolving Medium (Ficoll-Hypaque-Flow Laboratories), followed by centrifugation for 25 min at 2000 rpm and then, a further 25 min at 2500 rpm as described above.
3. For the assay, 20 μl of the platelet suspension (2×10^8 /ml) was placed in a microcentrifuge tube. An equal volume of the oligosaccharide preparations at concentrations from 200 μg/ml to 0.3 μg/ml, or of glycolipid-liposome preparations (prepared as described above), at concentrations from 2 μg/ml to 0.25 μg/ml, was added and the tubes were allowed to stand at room temperature for 20 min. Twenty μl of the neutrophil preparation (2×10^6 /ml) was then added and the tubes were allowed to stand for a further 20 min at room temperature.
(§2) 4. Adhesion of activated platelets to the neutrophils was assessed microscopically. One hundred neutrophils were evaluated. They were scored as positive if 2 or more platelets were attached and negative if less than 2 platelets were bound. The percent of cells with 2 or more bound platelets was calculated.
as §1, with “added” for “added,”
Platelets were isolated as described above and were activated (2×10^8 /ml) by incubation for 20 min at room temperature with thrombin at a final concentration of 0.25 U/ml.
Neutrophils were isolated by layering heparinized blood over Mono-Poly Resolving Medium (Ficoll-Hypaque, Flow Laboratories), followed by centrifugation for 25 min at […] and then, a further 25 min at 2500 rpm as described above.
For the assay, 20 μl of the platelet suspension (2×10^8 /ml) was placed in an Eppendorf centrifuge tube. An equal volume of the oligosaccharide preparations at concentrations from 500 μg/ml to 2.0 μg/ml was added and the tubes were allowed to stand at room temperature for 20 min. Twenty […] of the neutrophil preparation (2×10^6 /ml) was then added and the tubes were allowed to stand for a further 20 min at room temperature.
as §2, with “Adhesion” for “4. Adhesion”

[1] = system: CVF-induced acute lung injury; assay: Cobra venom factor (CVF)-induced acute lung injury in the rat; format: in vivo; conditions: in words; prior to CVF, 30 minutes
Protocol: Groups of rats were pretreated with either vehicle, SLN-OH (0.6 mg/Kg), or with SLX-OH (0.6 mg/Kg) 5 minutes prior to administration of either CVF or PBS. Each bar represents the mean of 6 animals and vertical lines represent the standard error of the mean.
Groups of rats were pretreated with either vehicle or Z at the indicated doses 5 minutes prior to administration of CVF or PBS. Each point represents the mean of 6 animals and vertical lines represent the standard error of the mean.
The intravenous injection of CVF produces intravascular complement activation which results in lung injury, defined as an increase in neutrophil accumulation within the lung, an increase in pulmonary vascular permeability and in lung hemorrhage. It is likely that intravascular complement activation results in the generation of a wide range of inflammatory mediators. Of particular relevance to the studies described here is generation of the split fifth complement component, C5a, which can stimulate the release of histamine from circulating basophils and tissue mast cells. […] The expression of selectins, including P-selectin, is a necessary first step in the process of leukocyte adherence to vascular endothelium.
Animals were dosed with different oligosaccharide preparations or phosphate buffered saline (PBS) five minutes before administration of cobra venom factor (20 units/Kg, i.v.). Included in this material was an aliquot of ^125 I-bovine serum albumin (0.5 μCi) and ^51 Cr labelled autologous red blood cells (0.5 μCi) for measuring plasma extravasation and hemorrhage respectively. Thirty minutes after administration of the cobra venom factor the animals were anesthetized with ketamine hydrochloride (10 mg/Kg) and exsanguinated via the posterior vena cava. The lung vasculature was then perfused through the right cardiac ventricle with 10 mL of PBS. The lungs were removed and the amount of radioactivity remaining within the tissue assessed with a gamma scintillation counter. Increased pulmonary vascular permeability was measured as the ratio of ^125 I in lung tissue compared with the amount present in 1 mL of venous blood obtained at the time of death. Lung hemorrhage was measured as the ratio of ^51 Cr in lung tissue compared with the amount present in 1 mL of venous blood obtained at the time of death. Neutrophil accumulation in lungs was determined by measuring the myeloperoxidase activity of lungs homogenized in PBS. Myeloperoxidase activity in lung supernatants was assayed by measuring the change in absorbance at 460 nm resulting from decomposition of H2 O2 in the presence of o-dianisidine

[2] = system: histamine induced leukocyte rolling in rat mesenteric venules; assay: Histamine induced leukocyte rolling and adherence in rat mesenteric venules (intravital microscopy); format: in vivo, rat (male Sprague-Dawley)
Protocol: Surgical procedure. Sixty-four male Sprague-Dawley rats (200-250 g) were maintained on a purified laboratory diet and fasted for 24 hours prior to the experiment. The animals were initially anesthetized with pentobarbital (65 mg/kg body weight), then a tracheotomy was performed to facilitate breathing during the experiment. The right carotid artery was cannulated and systemic arterial pressure was measured with a Statham (Oxnard, Calif.) P23A pressure transducer connected to the carotid artery cannula. Systemic blood pressure and heart rate were continuously recorded with a Grass physiologic recorder (Grass Instruments, Massachusetts). The left jugular vein was also cannulated for drug administration and blood sample collection. After a midline abdominal incision a segment of the mid-jejunum was exteriorized. All exposed tissue was moistened with saline-soaked gauze to minimize evaporation and dehydration.
Intravital microscopy. Rats were placed in a supine position on an adjustable plexiglass microscope stage and the mesentery was draped over an optically clear coverslip that allowed for observation of a 2 cm^2 segment of tissue. The temperature of the pedestal was maintained at 37° C. with a constant temperature circulator (Fisher Scientific, model 80). A small rubber gasket (area=3.14 cm^2) was placed on the mesentery and the outside area of contact between the gasket and mesentery was sealed (to prevent leakage of superfusate from the ring) with a mixture of high vacuum grease (Dow Corning Corp., Midland, Mich.) and white petrolatum (E. Fougera & Co., Melville, N.Y.). Rectal and mesenteric temperatures were continuously monitored using an electrothermometer. The exposed bowel wall was covered with Saran Wrap (Dow Chemical Co., Indiana), and the mesenteric tissue within the gasket was suffused with warmed bicarbonate-buffered saline (BBS; pH 7.4) that was bubbled with a mixture of 5% O2; 5% CO2; 90% N2.
An inverted microscope (Nikon Optiphoto, Japan) with a ×40 objective lens (Nikon Optiphoto, Japan) and a ×10 eyepiece was used to observe the mesenteric microcirculation. The mesentery was transilluminated with a 12 V-100 W direct current-stabilized light source. A video camera (Hitachi, VK-C150, Japan) mounted on the microscope projected the image onto a color monitor (Sony, PVM-2030, Japan), and the images were recorded using a video cassette recorder (Panasonic, NV8950, Japan). A video time-date generator (Panasonic, WJ810, Japan) projected the time, date, and stopwatch function onto the monitor.
Single unbranched venules with diameters ranging between 25 μm and 35 μm and a length>150 μm were selected for study. Venular diameter (Dv) was measured either on- or off-line using a video image-shearing monitor (IPM, La Mesa, Calif.). The number of adherent leukocytes was determined off-line during playback of videotaped images. A leukocyte was considered to be adherent to venular endothelium if it remained stationary for a period equal to or greater than 30 seconds. Adherent cells were expressed as the number per 100 μm length of venule. The number of emigrated leukocytes was also determined off-line during playback of videotaped images. Ary interstitial leukocytes present in the mesentery at the onset of the experiment were subtracted from the total number of leukocytes that accumulated during the course of the experiment. Leukocyte emigration was expressed as the number per microscopic field (1.7×10^-2 mm^2) or 150 μm length of venule. Rolling leukocytes were defined as those white blood cells that moved at a velocity less than that of erythrocytes in the same stream. The flux of rolling leukocytes was determined as the number of rolling leukocytes which crossed a fixed point on the venule over a given period of time. Leukocyte rolling velocity was determined from the time required for a leukocyte to roll along a given distance of the venule.

[3] = Table 2, mean of three identical experiments

**Q.** With CC(=O)N[C@H]1[C@H](O[C@H]2[C@@H](O)[C@@H](CO)O[C@@H](O[C@H]3[C@H](O)[C@@H](O)C(O)O[C@@H]3CO)[C@@H]2O)O[C@H](CO)[C@@H](O)[C@@H]1O[C@@H]1O[C@H](CO)[C@H](O)[C@H](O)[C@H]1O[C@@H]1O[C@@H](C)[C@@H](O)[C@@H](O)[C@@H]1O (stereo partly drawn) [LNF I, reference compound] as the molecule, how does the “AMOUNT REQUIRED FOR 50% INHIBITION” value (P-Selectin; Table 6) read?
**A.** The value was “No Inhibition”.

**Q.** CC(=O)N[C@H]1[C@H](O[C@H]2[C@@H](O)[C@@H](CO)O[C@@H](O[C@H]3[C@H](O)[C@@H](O)C(O)O[C@@H]3CO)[C@@H]2O)O[C@H](CO)[C@@H](O[C@@H]2O[C@H](CO)[C@H](O)[C@H](O)[C@H]2O)[C@@H]1O[C@@H]1O[C@@H](C)[C@@H](O)[C@@H](O)[C@@H]1O (stereo partly drawn) [LNF III (Le^x), reference compound] was tested. Which IC50 (P-Selectin; Table 6) did it give?
**A.** Its IC50 is 41 µM.

**Q.** For CC(=O)N[C@H]1C(O)O[C@H](CO)[C@@H](O[C@@H]2O[C@H](CO)[C@H](O)[C@H](O)[C@H]2O)[C@@H]1O[C@@H]1O[C@@H](C)[C@@H](O)[C@@H](O)[C@@H]1O (stereo partly drawn) [Le^x, reference compound], which IC50 (P-Selectin; [3]) is on record?
**A.** The IC50 was 43 µM.

**Q.** With CC(=O)N[C@H]1[C@H]([C@H](O)[C@H](O)CO)O[C@@](O[C@H]2[C@@H](O)[C@@H](CO)O[C@@H](O[C@H]3[C@H](O)[C@@H](NC(C)=O)C(O)O[C@@H]3CO)[C@@H]2O)(C(=O)O)C[C@@H]1O (stereo partly drawn) [SLN-OH, sialyl-N-acetyllactosamine, reference compound] as the molecule, how does the “effect on CVF-induced permeability, hemorrhage, MPO / lung injury” value [1] read?
**A.** Its value is “unaltered”.

**Q.** For CC(=O)N[C@H]1[C@H](O[C@@H]2[C@@H](O)[C@H](O)O[C@H](CO)[C@@H]2O)O[C@H](CO)[C@@H](O[C@@H]2O[C@H](CO)[C@H](O)[C@H](O[C@]3(C(=O)O)C[C@H](O)[C@@H](NC(C)=O)[C@H]([C@H](O)[C@H](O)CO)O3)[C@H]2O)[C@@H]1O[C@@H]1O[C@@H](C)[C@@H](O)[C@@H](O)[C@@H]1O [SLe^x (penta), NeuAcα2,3Galβ1,4-(Fucα1,3)GlcNacβ1,3Galβ], which IC50 (P-Selectin; [3]) is on record?
**A.** The IC50 was 2.2 µM.

**Q.** What does the source list for NCCc1c[nH]cn1 [histamine]?
**A.** Erythrocyte velocity ([2]; histamine 10^-5 M): 1.8 ± 0.4 mm/sec; Leukocyte adherence ([2]; histamine 10^-5 M): 7.2 ± 1.1 per 100 μm; Leukocyte emigration ([2]; histamine 10^-5 M): 2.5 ± 0.9 per field; Venular diameter ([2]; histamine 10^-5 M): 30 ± 1 μm; Wall shear rate ([2]; histamine 10^-5 M): 303 ± 64 s⁻¹; number of rolling leukocytes, fold increase ([2]; histamine 10^-5 M): 10 -fold; recruitment of rolling leukocytes, fold increase ([2]; histamine 10^-5 M): 5 -fold; reduction of leukocyte rolling velocity ([2]; histamine 10^-5 M): 50%; Erythrocyte velocity ([2]; histamine 10^-6 M): 2.4 ± 0.2 mm/sec; Leukocyte adherence ([2]; histamine 10^-6 M): 4.8 ± 0.7 per 100 μm; Leukocyte emigration ([2]; histamine 10^-6 M): 2.0 ± 0.7 per field; Venular diameter ([2]; histamine 10^-6 M): 30 ± 1 μm; Wall shear rate ([2]; histamine 10^-6 M): 401 ± 91 s⁻¹; effect on number of adherent leukocytes ([2]; histamine 10^-6 M and 10^-5 M): Significant increases in the number of adherent leukocytes; Erythrocyte velocity ([2]; histamine 10^-7 M): 2.8 ± 0.2 mm/sec; Leukocyte adherence ([2]; histamine 10^-7 M): 2.8 ± 0.7 per 100 μm; Leukocyte emigration ([2]; histamine 10^-7 M): 1.5 ± 0.7 per field; Venular diameter ([2]; histamine 10^-7 M): 30 ± 1 μm; Wall shear rate ([2]; histamine 10^-7 M): 476 ± 38 s⁻¹
